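Compound exposure: 48 hours, 5 concentrations, 96-well plates. At the GI50, growth is halved.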 Activity calls are given as the source filed them. No stated cut-off is given here; in the data, active = GI50 up to about 1.1 µM and inactive = higher.
Legend:
Experiment in all cases: DTP human tumour cell line panel, 48 h
[1] = system: 786-0
[2] = system: A498
[3] = system: BT-549
[4] = system: CAKI-1
[5] = system: COLO 205
[6] = system: EKVX
[7] = system: HCC 2998
[8] = system: HCT-116
[9] = system: HCT-15
[10] = system: HOP-62
[11] = system: HOP-92
[12] = system: HT-29
[13] = system: Hs-578T
[14] = system: IGROV-1
[15] = system: LOX IMVI
[16] = system: M14
[17] = system: MCF7
[18] = system: MDA-MB-231
[19] = system: MDA-MB-435
[20] = system: MDA-N
[21] = system: MOLT-4
[22] = system: Malme-3M
[23] = system: NCI-H460
[24] = system: NCI-H522
[25] = system: OVCAR-4
[26] = system: PC-3
[27] = system: RPMI-8226
[28] = system: RXF 393
[29] = system: SF-268
[30] = system: SF-295
[31] = system: SK-MEL-28
[32] = system: SK-MEL-5
[33] = system: SNB-19
[34] = system: SR
[35] = system: T47D
[36] = system: TK-10
[37] = system: U-251
[38] = system: UACC-257
[39] = system: UACC-62
[40] = system: A549
[41] = system: ACHN
[42] = system: CCRF-CEM
[43] = system: DU-145
[44] = system: HL-60
[45] = system: K562
[46] = system: NCI-H226
[47] = system: NCI-H23
[48] = system: OVCAR-3
[49] = system: OVCAR-5
[50] = system: OVCAR-8
[51] = system: SK-MEL-2
[52] = system: SN12C
[53] = system: SNB-75
[54] = system: SW-620
[55] = system: UO-31
[56] = system: KM12
[57] = system: NCI/ADR-RES
[58] = system: SF-539
[59] = system: SK-OV-3

SMILES: COc1ccc(-c2oc3cc(OC)ccc3c(=O)c2O)cc1
- GI50 [1]: 9.02 µM (inactive)
- GI50 [2]: > 100 µM (inactive)
- GI50 [3]: 0.668 µM (active)
- GI50 [4]: 2.53 µM (inactive)
- GI50 [5]: > 100 µM (inactive)
- GI50 [6]: > 100 µM (inactive)
- GI50 [7]: > 10 µM (inactive)
- GI50 [8]: 4.15 µM (inactive)
- GI50 [9]: 3.63 µM
- GI50 [10]: 3.7 µM (inactive)
- GI50 [11]: 3.42 µM (inactive)
- GI50 [12]: > 100 µM (inactive)
- GI50 [13]: 1.54 µM (inactive)
- GI50 [14]: 4.25 µM (inactive)
- GI50 [15]: 4.12 µM (inactive)
- GI50 [16]: > 25.5 µM (inactive)
- GI50 [17]: 3.43 µM (inactive)
- GI50 [18]: 43.4 µM (inactive)
- GI50 [19]: > 27.7 µM (inactive)
- GI50 [20]: > 100 µM (inactive)
- GI50 [21]: 2.66 µM (inactive)
- GI50 [22]: > 31.6 µM (inactive)
- GI50 [23]: 3.37 µM (inactive)
- GI50 [24]: 3.18 µM (inactive)
- GI50 [25]: 3.88 µM (inactive)
- GI50 [26]: > 100 µM (inactive)
- GI50 [27]: > 23.1 µM (inactive)
- GI50 [28]: 3.15 µM (inactive)
- GI50 [29]: 5.13 µM (inactive)
- GI50 [30]: 4.79 µM (inactive)
- GI50 [31]: > 25.4 µM (inactive)
- GI50 [32]: > 100 µM (inactive)
- GI50 [33]: > 100 µM (inactive)
- GI50 [34]: 3.57 µM (inactive)
- GI50 [35]: 9.42 µM (inactive)
- GI50 [36]: > 100 µM (inactive)
- GI50 [37]: 3.31 µM (inactive)
- GI50 [38]: > 100 µM (inactive)
- GI50 [39]: 5.19 µM (inactive)

SMILES: NC(CCCCNC(=O)C(Cc1ccccc1)NC(=O)OCc1ccccc1)C(=O)NC(CCCCNC(=O)C(Cc1ccccc1)NC(=O)OCc1ccccc1)C(=O)NC(CCCCNC(=O)C(Cc1ccccc1)NC(=O)OCc1ccccc1)C(=O)NC(CCCCNC(=O)C(Cc1ccccc1)NC(=O)OCc1ccccc1)C(=O)NC(CCCCNC(=O)C(Cc1ccccc1)NC(=O)OCc1ccccc1)C(=O)NC(CCCCNC(=O)C(Cc1ccccc1)NC(=O)OCc1ccccc1)C(=O)O (stereo not given)
- GI50 [1]: > 100 µM (inactive)
- GI50 [40]: > 100 µM (inactive)
- GI50 [41]: > 100 µM (inactive)
- GI50 [3]: > 100 µM (inactive)
- GI50 [4]: > 100 µM (inactive)
- GI50 [42]: > 100 µM (inactive)
- GI50 [43]: > 100 µM (inactive)
- GI50 [7]: > 100 µM (inactive)
- GI50 [8]: > 100 µM (inactive)
- GI50 [9]: > 100 µM
- GI50 [44]: > 100 µM (inactive)
- GI50 [10]: > 100 µM (inactive)
- GI50 [12]: > 100 µM (inactive)
- GI50 [14]: > 100 µM (inactive)
- GI50 [45]: > 100 µM (inactive)
- GI50 [15]: > 100 µM (inactive)
- GI50 [16]: > 100 µM (inactive)
- GI50 [17]: > 100 µM (inactive)
- GI50 [18]: > 100 µM (inactive)
- GI50 [19]: > 100 µM (inactive)
- GI50 [20]: > 100 µM (inactive)
- GI50 [21]: > 100 µM (inactive)
- GI50 [22]: > 100 µM (inactive)
- GI50 [46]: > 100 µM (inactive)
- GI50 [47]: > 100 µM (inactive)
- GI50 [23]: > 100 µM (inactive)
- GI50 [24]: > 100 µM (inactive)
- GI50 [48]: > 100 µM (inactive)
- GI50 [25]: > 100 µM (inactive)
- GI50 [49]: > 100 µM (inactive)
- GI50 [50]: > 100 µM (inactive)
- GI50 [26]: > 100 µM (inactive)
- GI50 [27]: > 100 µM (inactive)
- GI50 [29]: > 100 µM (inactive)
- GI50 [31]: > 100 µM (inactive)
- GI50 [51]: > 100 µM (inactive)
- GI50 [32]: > 100 µM (inactive)
- GI50 [52]: > 100 µM (inactive)
- GI50 [33]: > 100 µM (inactive)
- GI50 [53]: > 100 µM (inactive)
- GI50 [34]: > 100 µM (inactive)
- GI50 [54]: > 100 µM (inactive)
- GI50 [35]: > 100 µM (inactive)
- GI50 [36]: > 100 µM (inactive)
- GI50 [37]: > 100 µM (inactive)
- GI50 [38]: > 100 µM (inactive)
- GI50 [39]: > 100 µM (inactive)
- GI50 [55]: > 100 µM (inactive)

SMILES: CCc1c(O)cc(=O)oc1-c1ccc(OC)c(OC)c1
- GI50 [1]: > 100 µM (inactive)
- GI50 [2]: > 100 µM (inactive)
- GI50 [40]: > 100 µM (inactive)
- GI50 [41]: > 100 µM (inactive)
- GI50 [3]: > 100 µM (inactive)
- GI50 [4]: > 100 µM (inactive)
- GI50 [42]: > 100 µM (inactive)
- GI50 [5]: > 100 µM (inactive)
- GI50 [43]: > 100 µM (inactive)
- GI50 [6]: > 100 µM (inactive)
- GI50 [7]: > 100 µM (inactive)
- GI50 [8]: > 100 µM (inactive)
- GI50 [9]: > 100 µM
- GI50 [10]: > 100 µM (inactive)
- GI50 [11]: > 100 µM (inactive)
- GI50 [12]: > 100 µM (inactive)
- GI50 [13]: > 100 µM (inactive)
- GI50 [14]: > 100 µM (inactive)
- GI50 [45]: > 100 µM (inactive)
- GI50 [56]: > 100 µM (inactive)
- GI50 [15]: > 100 µM (inactive)
- GI50 [16]: > 100 µM (inactive)
- GI50 [17]: > 100 µM (inactive)
- GI50 [18]: > 100 µM (inactive)
- GI50 [19]: > 100 µM (inactive)
- GI50 [21]: > 100 µM (inactive)
- GI50 [47]: > 100 µM (inactive)
- GI50 [23]: > 100 µM (inactive)
- GI50 [24]: 64.1 µM (inactive)
- GI50 [57]: > 100 µM (inactive)
- GI50 [48]: > 100 µM (inactive)
- GI50 [25]: > 100 µM (inactive)
- GI50 [49]: > 100 µM (inactive)
- GI50 [50]: > 100 µM (inactive)
- GI50 [26]: > 100 µM (inactive)
- GI50 [28]: > 100 µM (inactive)
- GI50 [29]: > 100 µM (inactive)
- GI50 [30]: > 100 µM (inactive)
- GI50 [58]: > 100 µM (inactive)
- GI50 [31]: > 100 µM (inactive)
- GI50 [51]: > 100 µM (inactive)
- GI50 [32]: > 100 µM (inactive)
- GI50 [59]: > 100 µM (inactive)
- GI50 [52]: > 100 µM (inactive)
- GI50 [33]: > 100 µM (inactive)
- GI50 [53]: 72.6 µM (inactive)
- GI50 [54]: > 100 µM (inactive)
- GI50 [35]: > 100 µM (inactive)
- GI50 [36]: > 100 µM (inactive)
- GI50 [37]: > 100 µM (inactive)
- GI50 [38]: > 100 µM (inactive)
- GI50 [39]: > 100 µM (inactive)
- GI50 [55]: > 100 µM (inactive)

From ChEMBL document CHEMBL1201862, “PubChem BioAssay data set” (2004)
